Usually IC50 stands for the point on the concentration scale where inhibition reaches its midpoint.

Consider two compounds from ChEMBL document CHEMBL4196217, “Structure-Based Drug Design and Identification of H2O-Soluble and Low Toxic Hexacyclic Camptothecin Derivatives with Improved Efficacy in Cancer and Lethal Inflammation Models in Vivo” (J Med Chem, 2018).

Data set [1] can be described thus: Drug level in plasma of C57BL/6 mouse at 2 mg/kg, iv measured up to 1 hr by LC-MS/MS analysis. The format is ADME, organism-based. The settings on record: in vivo.
The subject of another data set is MGC-803. The data set can be described thus: Cytotoxicity in human MGC803 cells assessed as reduction in cell viability incubated for 48 hrs by MTT assay. The note with it: MGC-803, 48 h. The format is functional, cell-based. A general note: Formazan colour is commonly taken as a measure of viable cells.
A further data set concerns MDA-MB-231. Kind of data set: Cytotoxicity in human MDA-MB-231 cells assessed as reduction in cell viability incubated for 48 hrs by MTT assay. The class given is functional, cell-based. The settings on record: MDA-MB-231, 48 h.
In data set [2] the test system is Mus musculus. Kind of data set: Toxicity in human HepG2 cells xenografted Balb/C mouse assessed as reduction in body weight at 15 mg/kg, iv dosed once per week for 30 days followed by 2 weeks observation. The format is organism-based. The settings on record: in vivo, 336 h. (In general: In xenograft studies the graft and the host belong to different species.)
For the next data set, the system named is KB. Kind of data set: Cytotoxicity in human KB cells assessed as reduction in cell viability incubated for 48 hrs by MTT assay. The class given is functional, cell-based.
The test system of another data set is SGC-7901. Kind of data set: Cytotoxicity in human SGC7901 cells assessed as reduction in cell viability incubated for 48 hrs by MTT assay. The settings on record: SGC-7901, 48 h. The class given is functional, cell-based.
The subject of a further data set is SMMC-7721. Kind of data set: Cytotoxicity in human SMMC7721 cells assessed as reduction in cell viability incubated for 48 hrs by MTT assay. The format is functional, cell-based. The note with it: SMMC-7721, 48 h.
Data set [3] concerns HepG2. The data set can be described thus: Cytotoxicity in human HepG2 cells assessed as reduction in cell viability incubated for 48 hrs by MTT assay. The note with it: HepG2, 48 h. The class given is functional, cell-based.
Data set [4] in a line: Drug metabolism in plasma of C57BL/6 mouse assessed as (9S)-9-Ethyl-9-hydroxy-3-isopropyl-2,3-dihydro[1,3]-oxazino[5,6-f ]pyrano[3',4':6,7]indolizino[1,2-b]quinoline-1,10,13(9H,12H,15H)-trione formation at 2 mg/kg, iv measured up to 1 hr by LC-MS/MS analysis. The format is ADME, organism-based. The note with it: in vivo.
Another data set has as its system Bel-7402. Kind of data set: Cytotoxicity in human Bel7402 cells assessed as reduction in cell viability incubated for 48 hrs by MTT assay. The format is functional, cell-based. The settings on record: Bel-7402, 48 h.
Another data set has as its system A549. The data set can be described thus: cells. The settings on record: Homo sapiens, A549, 48 h.
The test system of a further data set is MCF7. The data set can be described thus: cells. The note with it: Homo sapiens, MCF7, 48 h.
A further data set deals with SK-N-SH. The data set can be described thus: Cytotoxicity in human SK-N-SH cells assessed as reduction in cell viability incubated for 48 hrs by MTT assay. The class given is functional, cell-based.
The test system of another data set is QGY-7703. The data set can be described thus: Cytotoxicity in human QGY7703 cells assessed as reduction in cell viability incubated for 48 hrs by MTT assay. The settings on record: QGY-7703, 48 h. The format is functional, cell-based.
Data set [5] in a line: Drug metabolism in plasma of C57BL/6 mouse assessed as (S)-8-Ethyl-8-hydroxy-2-isopropyl-8H-oxazolo[4,5-f ]-pyrano[3',4':6,7]indolizino[1,2-b]quinoline-9,12(11H,14H)-dione formation at 2 mg/kg, iv measured up to 1 hr by LC-MS/MS analysis. The class given is ADME, organism-based. The settings on record: in vivo.
For data set [6], the system named is Mus musculus. The data set can be described thus: Toxicity in human HepG2 cells xenografted Balb/C mouse assessed as reduction in body weight at 30 mg/kg, iv dosed once per week for 30 days followed by 2 weeks observation. The class given is organism-based. The settings on record: in vivo, 336 h.
The test system of data set [7] is HepG2. Kind of data set: Antitumor activity against human HepG2 cells xenografted in Balb/C mouse assessed as inhibition of tumor growth at 15 mg/kg, iv dosed once per week for 30 days followed by 2 weeks observation relative untreated control. The class given is functional. The settings on record: read-out: TGI.
Data set [8] deals with Mus musculus. The data set can be described thus: Protection against LPS-induced lethal inflammation in C57BL/6 mouse model of sepsis assessed as survival at 10 mg/kg, po dosed 0.5 hrs before LPS injection followed by 10 mg/kg, po dosing at 1 hr, 4 hrs, and 8 hrs after LPS treatment. The class given is functional.
The subject of data set [9] is Mus musculus. Kind of data set: Toxicity in human HepG2 cells xenografted Balb/C mouse assessed as induction of gastrointestinal flatulence at 4 mg/kg, iv dosed once per week for 30 days followed by 2 weeks observation. The format is organism-based. The note with it: in vivo, 336 h.
Data set [10] has as its system Mus musculus. Kind of data set: Toxicity in human HepG2 cells xenografted Balb/C mouse assessed as induction of gastrointestinal flatulence at 1/3 mg/kg, po qd for 30 days followed by 2 weeks observation. The format is organism-based. The note with it: in vivo, 336 h.
Data set [11] has as its system Mus musculus. The data set can be described thus: Toxicity in human HepG2 cells xenografted Balb/C mouse assessed as reduction in body weight at 4 mg/kg, iv dosed once per week for 30 days followed by 2 weeks observation. The format is organism-based. The settings on record: in vivo, 336 h.
The subject of data set [12] is HepG2. The data set can be described thus: Antitumor activity against human HepG2 cells xenografted in Balb/C mouse assessed as inhibition of tumor growth at 1.3 mg/kg, po qd for 30 days followed by 2 weeks observation relative untreated control. The format is functional. The note with it: read-out: TGI.
A short description of data set [13]: Drug metabolism in plasma of C57BL/6 mouse assessed as (9S)-9-Ethyl-9-hydroxy-3-isopropyl-2,3-dihydro[1,3]-oxazino[5,6-f ]pyrano[3',4':6,7]indolizino[1,2-b]quinoline-1,10,13(9H,12H,15H)-trione formation at 10 mg/kg, iv measured up to 1 hr by LC-MS/MS analysis. The note with it: in vivo. The format is ADME, organism-based.
Data set [14] has as its system HepG2. The data set can be described thus: Antitumor activity against human HepG2 cells xenografted in Balb/C mouse assessed as inhibition of tumor growth at 30 mg/kg, iv dosed once per week for 30 days followed by 2 weeks observation relative untreated control. The class given is functional. The note with it: read-out: TGI.
Data set [15] has as its system HepG2. Kind of data set: Antitumor activity against human HepG2 cells xenografted in Balb/C mouse assessed as inhibition of tumor growth at 4 mg/kg, iv dosed once per week for 30 days followed by 2 weeks observation relative untreated control. The class given is functional. The note with it: read-out: TGI.
For data set [16], the system named is Mus musculus. Kind of data set: Protection against LPS-induced lethal inflammation in C57BL/6 mouse model of sepsis assessed as survival at 4 mg/kg, po dosed 0.5 hrs before LPS injection followed by 4 mg/kg, po dosing at 1 hr, 4 hrs, and 8 hrs after LPS treatment. The class given is functional.
Data set [17] has as its system Mus musculus. The data set can be described thus: Toxicity in human HepG2 cells xenografted Balb/C mouse assessed as effect on mouse survival at 1.3 mg/kg, po qd for 30 days followed by 2 weeks observation. The class given is organism-based. The settings on record: in vivo, 336 h.
Data set [18] relates to Mus musculus. The data set can be described thus: Toxicity in human HepG2 cells xenografted Balb/C mouse assessed as induction of gastrointestinal flatulence at 8 mg/kg, iv dosed once per week for 30 days followed by 2 weeks observation. The class given is organism-based. The note with it: in vivo, 336 h.
The test system of data set [19] is Mus musculus. The data set can be described thus: Toxicity in human HepG2 cells xenografted Balb/C mouse assessed as reduction in body weight at 1.3 mg/kg, po qd for 30 days followed by 2 weeks observation. The format is organism-based. The note with it: in vivo, 336 h.
Data set [20] relates to Mus musculus. The data set can be described thus: Toxicity in human HepG2 cells xenografted Balb/C mouse assessed as effect on mouse survival at 8 mg/kg, iv dosed once per week for 30 days followed by 2 weeks observation. The format is organism-based. The settings on record: in vivo, 336 h.
A short description of data set [21]: Drug metabolism in plasma of C57BL/6 mouse assessed as (9S)-9-Ethyl-9-hydroxy-3-isopropyl-2,3-dihydro[1,3]-oxazino[5,6-f ]pyrano[3',4':6,7]indolizino[1,2-b]quinoline-1,10,13(9H,12H,15H)-trione formation at 10 mg/kg, po measured up to 1 hr by LC-MS/MS analysis. The class given is ADME, organism-based. The note with it: in vivo.
Data set [22] is described as follows: Drug metabolism in plasma of C57BL/6 mouse assessed as (S)-8-Ethyl-8-hydroxy-2-isopropyl-8H-oxazolo[4,5-f ]-pyrano[3',4':6,7]indolizino[1,2-b]quinoline-9,12(11H,14H)-dione formation at 10 mg/kg, po measured up to 1 hr by LC-MS/MS analysis. The format is ADME, organism-based. The settings on record: in vivo.
Data set [23] concerns Mus musculus. Kind of data set: Toxicity in human HepG2 cells xenografted Balb/C mouse assessed as effect on mouse survival at 4 mg/kg, iv dosed once per week for 30 days followed by 2 weeks observation. The class given is organism-based. The note with it: in vivo, 336 h.
Data set [24] deals with Mus musculus. Kind of data set: Toxicity in human HepG2 cells xenografted Balb/C mouse assessed as reduction in body weight at 8 mg/kg, iv dosed once per week for 30 days followed by 2 weeks observation. The settings on record: in vivo, 336 h. The class given is organism-based.
Data set [25] concerns HepG2. Kind of data set: Antitumor activity against human HepG2 cells xenografted in Balb/C mouse assessed as inhibition of tumor growth at 8 mg/kg, iv dosed once per week for 30 days followed by 2 weeks observation relative untreated control. The format is functional. The note with it: read-out: TGI.
Data set [26] can be described thus: Drug level in plasma of C57BL/6 mouse at 10 mg/kg, po measured up to 30 hrs by LC-MS/MS analysis. The format is ADME, organism-based. The note with it: in vivo.

Description for A549: Cytotoxicity in human A549 cells assessed as reduction in cell viability incubated for 48 hrs by MTT assay
Description for MCF7: Cytotoxicity in human MCF7 cells assessed as reduction in cell viability incubated for 48 hrs by MTT assay

`CC[C@@]1(OC(=O)CNC(=O)CCC(=O)O)C(=O)OCc2c1cc1n(c2=O)Cc2cc3c(ccc4oc(C(C)C)nc43)nc2-1`: the Drug uptake result in data set [1] was “Not Active”. For the same compound, the IC50 in the data set with MGC-803 was 62 nM; in the data set on MDA-MB-231 it was 425 nM; with KB it was 935 nM; with SGC-7901, more than 10000 nM; with SMMC-7721, 8500 nM; in the data set on HepG2 [3], 60 nM. The IC50 with Bel-7402 was 425 nM; in the data set with A549, 170 nM; with MCF7, more than 10000 nM; with SK-N-SH it was 510 nM; in the data set with QGY-7703 it was more than 10000 nM. Also, the Activity entry in the data set with Mus musculus [2] is recorded as “Non-Toxic”; with Mus musculus [6], “Non-Toxic”; with Mus musculus [8], 80%. Moreover, the Drug metabolism result in data set [4] and in data set [5] was “Metabolite_Notdetected” throughout. Also, in the data set with HepG2 [7], the inhibition in vivo at 15 mg/kg stood at 86%.
Regarding `CC[C@@]1(OC(=O)CNC(=O)CCC(=O)O)C(=O)OCc2c1cc1n(c2=O)Cc2cc3c4c(ccc3nc2-1)OC(C(C)C)NC4=O` (some centres not stated), the Activity entry with Mus musculus [9] is “Toxic”; in the data set on Mus musculus [10] it was “Toxic”; in the data set with Mus musculus [11] it was “Non-Toxic”; with Mus musculus [16] it was 100%; with Mus musculus [17], “Non-Toxic”; with Mus musculus [18] it was “Toxic”. Moreover, the Activity result in the data set with Mus musculus [19], in the data set on Mus musculus [20], in the data set on Mus musculus [23] and in the data set on Mus musculus [24] was “Non-Toxic” throughout. Moreover, the inhibition in vivo at 1.3 mg/kg with HepG2 [12] is 93%. In addition, the Drug metabolism entry in data set [13], in data set [21] and in [22] was “Metabolite_Notdetected” each time. The half-inhibitory concentration (IC50) with MGC-803 is 971 nM; in the data set with MDA-MB-231, 5020 nM; with KB, 7280 nM; in the data set on SGC-7901, more than 10000 nM; in the data set on SMMC-7721, more than 10000 nM; in the data set with HepG2 [3] it was 971 nM. The IC50 is more than 10000 nM in the data set on Bel-7402; 6470 nM with A549; more than 10000 nM in the data set with MCF7; 194 nM with SK-N-SH; more than 10000 nM in the data set on QGY-7703. Further, the inhibition in vivo at 30 mg/kg with HepG2 [14] was 90%. In addition, the inhibition in vivo at 4 mg/kg in the data set on HepG2 [15] was determined as 83%. Also, in the data set with HepG2 [25], the inhibition in vivo at 8 mg/kg stood at 93%. The Drug uptake entry in data set [26] is “Not Active”.
